Tests used:
Assay type in all cases: in vivo
[1] = system: Nicotiana benthamiana phytoene desaturase; assay: Topical oligonucleotides/polynucleotides on tobacco, PDS bleaching and chlorophyll (Example 10)
Method: The following procedure was used for all assays described in this example. Four-week old Nicotiana benthamiana plants were used in all assays. Plants were treated with 0.1% Silwet L-77 solution freshly made with ddH2O. Two fully expanded leaves per plant (one cotyledon, one true leaf) were dipped into the Silwet L-77 solution for a few seconds, and allowed to dry for 15-30 minutes before application of the polynucleotide composition. Final concentration for each oligonucleotide or polynucleotide was 25 microM (in 0.01% Silwet L-77, 5 mM sodium phosphate buffer, pH 6.8) unless otherwise stated. 20 microliters of the solution was applied to the top surface of each of the two pre-treated leaves to provide a total of 40 microliters (1 nmol oligonucleotide or polynucleotide) for each plant. Leaf bleaching was observed 3 days post treatment.
FIG. 13 illustrates phenotypes observed at day 12 after treatment in another assay of the effect from twelve combinations of polynucleotides or oligonucleotides (see Table 4). Table 4 also lists observations of visible bleaching of the plants at day 5 after treatment and the results of chlorophyll measurements taken at days 7 and 12 after treatment. Chlorophyll measurements are an indication of suppression of the target gene phytoene desaturase, and measurements were taken at 6 spots on the apical area, focussing on visibly bleached leaves or (in plants without visible bleaching) on leaves in equivalent locations on the plants; lower chlorophyll measurement values indicate suppression of phytoene desaturase.

[2] = system: endogenous PDS, EPSPS, or RuBisCO genes from Nicotiana benthamiana; assay: PDS, EPSPS, RuBisCO anti-sense polynucleotides on Nicotiana benthamiana, plant height (Example 33); conditions: PDS 25 nanomoles, EPSPS and RuBisCO 50 nanomoles of each per plant
Method: Nicotiana benthamiana plants were treated using a procedure similar to that described in Example 12. Polynucleotide solution (or mixed polynucleotides in the case of EPSPS and RuBisCO) were prepared in 0.01% (v/v) Silwet L-77 and 2% (w/v) ammonium sulfate in 5 millimolar sodium phosphate, pH 6.8. Two fully expanded leaves per plant were dipped into 0.1% Silwet L-77 solution freshly made with ddH2O for a few seconds, and allowed to dry. About 30 minutes later, 20 microliters of polynucleotide solution, was applied to each of the two pre-treated leaves. For PDS, each of 5 plants received 25 nanomoles of the PDS anti-sense polynucleotide (SEQ ID NO:34); for EPSPS, each of 5 plants received 50 nanomoles of each EPSPS anti-sense polynucleotide (SEQ ID NOS:279-284); and for RuBisCO, each of 5 plants received 50 nanomoles of each RuBisCO anti-sense polynucleotide (SEQ ID NOS:288-295). Paired control plants were treated with buffer (0.01% (v/v) Silwet L-77 and 2% (w/v) ammonium sulfate in 5 millimolar sodium phosphate, pH 6.8).

[3] = system: endogenous Nicotiana benthamiana Argonaute-1 (AGO1) gene; assay: AGO1 anti-sense with PDS anti-sense, systemic bleaching (Example 33); conditions: PDS 25 nanomoles; AGO1 50 nanomoles of each of 14; combined applied on separate leaves
Method: Nicotiana benthamiana plants were treated using a procedure similar to that described in Example 12. Polynucleotide solution (or mixed polynucleotides in the case of AGO1) were prepared in 0.01% (v/v) Silwet L-77 and 2% (w/v) ammonium sulfate in 5 millimolar sodium phosphate, pH 6.8. Two fully expanded leaves per plant were dipped into 0.1% Silwet L-77 solution freshly made with ddH2O for a few seconds, and allowed to dry. About 30 minutes later, 20 microliters of polynucleotide solution was applied to each of the two pre-treated leaves. For PDS, each of 5 plants received 25 nanomoles of the PDS anti-sense polynucleotide (SEQ ID NO:34); for AGO1, each of 5 plants received 50 nanomoles of each of the 14 AGO1 anti-sense polynucleotides (SEQ ID NOS:300-313); for PDS and AGO combined treatments, each of 5 plants received 25 nanomoles of the PDS anti-sense polynucleotide (SEQ ID NO:34) and 50 nanomoles of each of the 14 AGO1 anti-sense polynucleotides (SEQ ID NOS:300-313) applied on separate leaves. Paired control plants were treated with buffer (0.01% (v/v) Silwet L-77 and 2% (w/v) ammonium sulfate in 5 millimolar sodium phosphate, pH 6.8). No difference was observed between plants treated with the AGO1 anti-sense polynucleotides and the plants treated with buffer alone.

[4] = system: Glyphosate-resistant Palmer amaranth plants (33, 36, or 57 copies EPSPS); assay: Spermine, spermidine or ammonium sulfate with dsRNA then glyphosate (Example 35, FIG. 39); conditions: 10 mM spermidine alone
Method: The effect of the polyamine cations spermine (N,N′-bis(3-aminopropyl)butane-1,4-diamine) and spermidine (N-(3-aminopropyl)butane-1,4-diamine) on herbicidal activity of topically applied polynucleotides (RNA) on glyphosate-resistant Palmer amaranth plants was investigated. […] The dsRNA polynucleotide solutions were prepared with either 1 or 10 millimolar spermine or spermidine or 2% ammonium sulfate, in a 10 millimolar sodium phosphate (pH 6.8) buffer. Control solutions (without polynucleotides) were prepared with either 1 or 10 millimolar spermine or spermidine or 2% ammonium sulfate, in a 10 millimolar sodium phosphate (pH 6.8) buffer. Glyphosate-resistant Palmer amaranth plants (33, 36, or 57 copies EPSPS) were pre-sprayed with 1% Silwet L-77. The dsRNA polynucleotide solutions (11.6 grams/acre) or buffer solutions were applied as drops on four lower fully expanded leaves of glyphos ate resistant Palmer amaranth by pipetting. Two days following polynucleotide treatment the plants were sprayed with glyphosate (3360 g acid equivalent per hectare of Roundup® WeatherMAX® brand herbicide).

| Molecule | bleaching of apical leaves (FIG. 15) ([1]; another assay) | bleaching of apical leaves (FIG. 14) ([1]; topical treatment) | plant height (FIG. 36) ([2]; 12 days (PDS and EPSPS) or 10 days (RuBisCO) after treatment) | other phenotype [2] | systemic bleaching / difference from buffer [3] | plant outcome, 33-copy [4] |
| --- | --- | --- | --- | --- | --- | --- |
| PDS 21-mer anti-sense ssDNA: SEQ ID NO:34 (antisense CATCTCCTTTAATTGTACTGC; DNA, backbone not given here) | strong bleaching | Strong bleaching | severe stunting | bleaching | displayed systemic bleaching | – |
| NCCCCNCCCN [spermidine, N-(3-aminopropyl)butane-1,4-diamine] | – | – | – | – | – | stunted |

— patent publication US20130047297A1, “POLYNUCLEOTIDE MOLECULES FOR GENE REGULATION IN PLANTS” (priority 2010, published 2013)
